US20250002453A1, “PHARMACEUTICALLY ACCEPTABLE SALT OF ELIGLUSTAT AND CRYSTAL FORM THEREOF” (SPEROGENIX (SHANGHAI) MEDTECH CO., LTD., priority 2021, published 2025)

Assay: Deliquescence / moisture uptake observed under room humidity or during XRPD testing
Assay type: physicochemical
Details: under room humidity conditions
Protocol: Free crystalline form A and 0.5 equivalent of L-malic acid were suspended and stirred in EtOAc for 1 day at room temperature to obtain the sample. The solid was separated by centrifugation and dried under vacuum to obtain crystalline form A of malate.
Free crystalline form A and 0.5 equivalent of L-malic acid were suspended and stirred in IPAc/n-heptane (1:5, v:v) for 1 day at room temperature and 2 days at 40° C., and then the solid was separated by centrifugation. Upon vacuum drying, crystalline form B of malate was obtained.

CCCCCCCC(=O)NC(CN1CCCC1)C(O)c1ccc2c(c1)OCCO2.O=C(O)CC(O)C(=O)O (stereo not shown) [Crystalline form A of malate]
deliquescence / moisture absorption: deliquesced significantly
